Mortality data for one substance are collected here from patent publication US5011824A, “Rectal motilin preparation” (Kyowa Hakko Kogyo Co., Ltd., priority 1988, dated 1991).

The data set in a line: Intravenous safety of motilin in rats. To be noted: 10 mg/kg intravenously. It counts as in vivo. The source says: The preparation usually contains a therapeutically effective quantity, suitably about 0.05 to about 5% by weight, preferably about 0.1 to about 2% by weight, of motilin.

Consider motilin, for which the mortality result is given as “did not die”.
